Experimental data as given in US20180038865A1, “CD9 AS A THERAPEUTIC TARGET FOR HEMATOLOGIC MALIGNANCIES” (The Chinese and Knowledge Transfer Services, priority 2016, published 2018).

Tests used:
Assay in all cases: Apoptosis assay (Annexin V/7-AAD), vincristine, monoculture or stromal co-culture
Assay type in all cases: cell-based, human
[1] = system: RS4;11; conditions: vincristine 12.5 nM, 3 days
Description: (§1) […]: In vitro and in vivo effects of CD9 antibody on chemosensitivity of B-ALL cells. (FIG. 4A) B-ALL cell lines were treated with vincristine (VCR, 12.5 nM) for 3 days in monoculture or stromal co-culture. Apoptosis was monitored by Annexin V/7-AAD staining (n=4). (FIG. 4B) 697 cells were treated with VCR (12.5 nM) in stromal co-cultures for 3 days, in the presence of control IgG or anti-CD9 (ALB6, 10 μg/mL), and measured for apoptosis (n=4). (FIG. 4C) NOD/SCID mice were transplanted with 697 cells and treated with IgG alone, anti-CD9 alone (ALB6, 20 μg/mouse), IgG+VCR (0.8 mg/kg) or anti-CD9 + VCR. Antibodies and VCR were given twice a week for 2 weeks. Animal survival was analyzed (4-5 mice/group). Data are means±SEM. Statistics: (A and B) two-tailed, paired Student's t-test, (FIG. 4C) log-rank test. *P<0.05, **P<0.01.
(§2) B-ALL cell lines (1×10^5) were cultured with or without monolayers of BM stromal cells, and exposed to 10 μg/mL of control IgG or CD9 antibody (ALB6). Cells were then treated with vincristine (12.5 nM; Sigma Aldrich) for 3 days at 37° C. Apoptotic cell death was monitored using the Annexin V/7-AAD Apoptosis Detection Kit (BD Biosciences).

[2] = system: SUP-B15; conditions: vincristine 12.5 nM, 3 days
Description: as §1, §2

[3] = system: Reh cells; conditions: vincristine 12.5 nM, 3 days; CD9low Reh
Description: as §1, §2

[4] = system: 697 cells; conditions: vincristine 12.5 nM, 3 days
Description: as §1, §2

SMILES: CC[C@]1(O)C[C@H]2CN(CCc3c([nH]c4ccccc34)[C@@](C(=O)OC)(c3cc4c(cc3OC)N(C=O)[C@H]3[C@@](O)(C(=O)OC)[C@H](OC(C)=O)[C@]5(CC)C=CCN6CC[C@]43[C@@H]65)C2)C1 [vincristine]
- vincristine-mediated apoptotic cell death, stromal co-culture vs monoculture [1]: reduced
- vincristine-mediated apoptotic cell death, stromal co-culture vs monoculture [2]: reduced
- protective effect of stromal cells against vincristine-mediated apoptotic cell death [3]: absent
- vincristine-mediated apoptotic cell death, stromal co-culture vs monoculture [4]: reduced
